Values after ≈ are worked out from the molar mass of the structure shown. Numbered stars: 1 amine (or outer) side, 2 acyl side, 3 side chain; on linkers, the order of the positions; unused ones are H or OH. Square brackets hold non-standard residues; d marks the D form. Peptide text beside a SMILES is read from it. * marks the point of attachment. X1 = COc1cccc2[nH]c(C)c(C[C@H](N[*:1])C(=O)[*:2])c12; dAla(ψthiazole) = C[C@@H](N[*:1])c1nc(C(=O)[*:2])cs1; Trp(4-OMe) = COc1cccc2[nH]cc(C[CH](N)C(=O)O)c12; X2 = O=C(c1csc([C@@H](CO)N[*:1])n1)[*:2]; GlyΨ(Thz) = O=C(c1csc(CN[*:1])n1)[*:2]; dAbu = CC[C@@H](N)C(=O)O; Cbz = O=C(OCc1ccccc1)*; Dha = C=C(N)C(=O)O; Sar = CNCC(=O)O
Columns and labels:
[1] = tested on: mouse embryonic fibroblasts from p27^kip1 wildtype mice; assay: Apoptosis (sub-G1 fraction) by flow cytometry in p27 wildtype MEF; format: cell-based; conditions: sub G1 fraction
From the text: (§1) Next the inventors tested whether the stabilization of p27 was indeed required for the apoptosis inducing function of Argyrin A or was merely a consequence of proteasome inhibition. For this the inventors treated immortalized mouse embryonic fibroblasts from p27^kip1 wildtype or knockout mice with Argyrin A or the proteasome inhibitor bortezomib and assayed cell cycle distribution and apoptosis by flow cytometry. […] These differences in sensitivity in response to Argyrin A treatment were not due to differences in the accumulation of other proteasomal substrates in p27 wildtype and knockout cells as p53 and p21 levels increased in both cell lines in response to Argyrin A (FIG. 6B). To extend this observation to human cancer cells the inventors reduced the levels of p27^kip1 in HeLa cells using p27^kip1 specific siRNA.
(§2) The results shown are the average numbers for six independent experiments. b+d) Wildtype (b) and p27 knockout (d) MEF were treated with Argyrin A or transfected with siRNAs specific for the β1, β2 or β5 subunit of the proteasome for 24 hours. The graphs show the remaining catalytic activity of the different proteasome subunits after Argyrin A or siRNA treatment compared to an untreated control (n=3). The western blots show the expression of the β1, β2 or β5 subunit of the proteasome in proliferating cells and after treatment with siRNAs for a representative experiment. c+e) Flow cytometric measurements of the number of apoptotic cells (sub-G1 fraction) after Argyrin A or siRNA treatment in wildtype (c) or p27 knockout (E) MEF. f) HeLa cells were treated with Argyrin A or siRNA against p27 or Argyrin A and siRNA against p27 for either 24 or 48 hours.
(§3) MTT assays were done as previously described (Sasse, F. et al. Argyrins, immunosuppressive cyclic peptides from myxobacteria. I. Production, isolation, physico-chemical and biological properties. J Antibiot (Tokyo) 55, 543-51 (2002)). TUNEL staining of tissue sections was performed on 10 micrometer sections which were deparafinised and treated as recommended by the manufacturer. (In Situ Cell Death Detection Kit, Fluorescein; ROCHE, Cat #11 684 795 910). Flow cytometric analysis of cultured cells was done using a Becton Dickinson fluorescence cytometer as previously described (Malek, N. P. et al. A mouse knock-in model exposes sequential proteolytic pathways that regulate p27^Kip1 in G1 and S phase. Nature 413, 323-7 (2001)). Analysis of the distribution of cells in the cell cycle and the sub-G1 fraction was done using Cell Quest software. A histone-associated-DNA-fragments ELISA was used to determine the number of apoptotic cells according to manufacturers instructions (Roche #11 774425001).

[2] = tested on: mouse embryonic fibroblasts from p27^kip1 knockout mice; assay: Apoptosis (sub-G1 fraction) by flow cytometry in p27 knockout MEF; format: cell-based; conditions: sub G1 fraction
From the text: as §1, §2, §3

[3] = tested on: p27-GFP (clone H15GFP-p27, HeLa-cell line; cervix-carcinoma); assay: GFP-fluorescence per FACS in clone H15GFP-p27; format: cell-based, human; conditions: GFP-fluorescence per FACS after 24 h incubation, 500 ng/ml
From the text: Human p27cDNA (in plasmid vector CS2+) was digested with EcoR1 and BamH1, and the resulting fragment was ligated after gel purification into the vector pEGFP-N1 (Clontech) that was cut with the same restriction enzymes. Thus, a […] fusion with the GFP as contained in the pEGFP-vector was generated. The plasmid was then transfected into Hela cells, and, following selection of the cells with kanamycin, cellular clones were isolated which had the plasmid integrated stably into their chromosome. The expression of the p27EGFP proteins was confirmed using Western blots and immune precipitations for both p27 and GFP.
(§4) The following table summarizes the effects of argyrin-derivatives A to H on two cancer cell lines, H15 (cervix carcinoma) and SW-480 (colon cancer). In order to test the efficacy, a p27-GFP-clone was used.

H15 (cervix carcinoma) = assay: MIC (visual), serial dilution, H15; format: cell-based, human; conditions: minimal concentration of a serial dilution exhibiting a visual effect
From the text: as §4

[4] = tested on: SW-480 (colon cancer cell line); assay: MTT-test proliferation of SW-480; format: cell-based, human; conditions: for IC-50 SW-480: half-maximal inhibition of proliferation
Protocol: as §3

SW-480 (colon cancer) = assay: MIC (visual), serial dilution, SW-480; format: cell-based, human; conditions: minimal concentration of a serial dilution exhibiting a visual effect
From the text: as §4

CC(C)C[C@@H](C=O)NC(=O)[C@H](CC(C)C)NC(=O)[C@H](CC(C)C)NC(=O)OCc1ccccc1 [MG132] (Cbz-Leu-Leu-Leu-aldehyde)
apoptosis in p27 wildtype MEF [1]: same response
apoptosis in p27 knockout MEF [2]: same response

C=C1NC(=O)[C@@H](C)NC(=O)CNC(=O)[C@H](Cc2c(C)[nH]c3cccc(OC)c23)NC(=O)[C@H](Cc2c[nH]c3ccccc23)NC(=O)c2csc(n2)[C@@H](C)NC(=O)CN(C)C1=O [Argyrin C] (cyclo(W[X1]G[dA][Dha][Sar][dAla(ψthiazole)]))
Mean of FSC-H (Log) H15 p27-GFP-clone [3]: 7.36
MIC (visual) H15 (H15 (cervix carcinoma)): 37 µg/mL (≈ 44.1 µM)
IC-50 SW-480 [4]: Ca. 0.05 μg/ml
MIC (visual) SW-480 (SW-480 (colon cancer)): 37 µg/mL (≈ 44.1 µM)

C=C1NC(=O)[C@@H](CC)NC(=O)CNC(=O)[C@H](Cc2c[nH]c3cccc(OC)c23)NC(=O)[C@H](Cc2c[nH]c3ccccc23)NC(=O)c2csc(n2)[C@@H](C)NC(=O)CN(C)C1=O [Argyrin B, argyrin B] (cyclo([Dha][Sar][dAla(ψthiazole)]W[Trp(4-OMe)]G[dAbu]))
Mean of FSC-H (Log) H15 p27-GFP-clone [3]: 7.60
MIC (visual) H15 (H15 (cervix carcinoma)): 12 µg/mL (≈ 14.3 µM)
IC50 ([4]; Homo sapiens, SW480, half-maximal inhibition of proliferation, read-out: IC-50 SW-480): ~0.05 µg/mL (≈ 0.0596 µM)
MIC (visual) SW-480 (SW-480 (colon cancer)): 12 µg/mL (≈ 14.3 µM)

C=C1NC(=O)[C@@H](CC)NC(=O)CNC(=O)[C@H](Cc2c(C)[nH]c3cccc(OC)c23)NC(=O)[C@H](Cc2c[nH]c3ccccc23)NC(=O)c2csc(n2)[C@@H](C)NC(=O)CN(C)C1=O [Argyrin D] (cyclo(W[X1]G[dAbu][Dha][Sar][dAla(ψthiazole)]))
Mean of FSC-H (Log) H15 p27-GFP-clone [3]: 7.69
MIC (visual) H15 (H15 (cervix carcinoma)): 12 µg/mL (≈ 14.1 µM)
IC-50 SW-480 [4]: Ca. 0.05 μg/ml
MIC (visual) SW-480 (SW-480 (colon cancer)): 37 µg/mL (≈ 43.4 µM)

C=C1NC(=O)[C@@H](C)NC(=O)CNC(=O)[C@H](Cc2c[nH]c3cccc(OC)c23)NC(=O)[C@H](Cc2c[nH]c3ccccc23)NC(=O)c2csc(n2)[C@@H](CO)NC(=O)CN(C)C1=O [Argyrin F, argyrin F] (cyclo([Dha][Sar][X2]W[Trp(4-OMe)]G[dA]))
Mean of FSC-H (Log) H15 p27-GFP-clone [3]: 11.24
MIC (visual) H15 (H15 (cervix carcinoma)): 0.5 µg/mL (≈ 0.595 µM)
IC-50 SW-480 [4]: 0.05 µg/mL
MIC (visual) SW-480 (SW-480 (colon cancer)): 0.2 µg/mL (≈ 0.238 µM)

C=C1NC(=O)C(C)NC(=O)CNC(=O)C(Cc2c[nH]c3cccc(OC)c23)NC(=O)C(Cc2c[nH]c3ccccc23)NC(=O)c2csc(n2)CNC(=O)CN(C)C1=O (stereo not drawn) [Argyrin H] (cyclo([Dha][Sar][GlyΨ(Thz)]W[Trp(4-OMe)]GA); configuration not given here)
MIC (visual) H15 (H15 (cervix carcinoma)): 37 µg/mL (≈ 45.6 µM)
IC-50 SW-480 [4]: Ca. 0.5 μg/ml
MIC (visual) SW-480 (SW-480 (colon cancer)): 37 µg/mL (≈ 45.6 µM)

Reference: patent US8217071B2, “Use of inhibitors of the degradation of p27, in particular Argyrin and derivatives thereof, for the treatment of proliferative diseases” (Helmholtz Zentrum für Infektionsforschung GmbH, priority 2007, dated 2012)
